We go through 3 molecules from patent US20040142979A1, “Heteroarylsulfonylmethyl hydroxamic acids and amides and their use as protease inhibitors” (priority 2002, published 2004).

One data set concerns the target T1, Human recombinant MMP-9 (Homo sapiens, UniProt P14780).
T1 construct: made in house; host or cells: MMP-9-transfected HT1080 cells (spent media)
In words: In vitro MMP inhibition analysis (fluorogenic peptide substrate), MMP-9. The format is biochemical. Conditions: human recombinant enzyme; 4 μM substrate (A); apparent Ki without substrate correction. The method, then: (§1) Several compounds and salts were analyzed in an in vitro assay to determine their ability to inhibit the MMP cleavage of peptide substrates. Inhibition constant (Ki) were calculated from the assayed compound-MMP interactions.
(§2) Human recombinant MMP-1, MMP-2, MMP-9, MMP-13, and MMP-14 were used in this assay. All enzymes were prepared in Assignee's laboratories following usual laboratory procedures. Protocols for the preparation and use of these enzymes are available in the scientific literature. See, e.g., Enzyme Nomenclature (Academic Press, San Diego, Calif., 1992) (and the citations therein). See also, Freije et al., J. Biol. Chem., 269(24), 16766-16773 (1994).
The MMP-9 proenzyme was purified by gelatin Sepharose chromatography from spent media of MMP-9-transfected HT1080 cells provided by Dr. Howard Welgus of Washington University (St. Louis, Mo.).
(§3) All MMPs were activated using 4-aminophenylmercuric acetate (“APMA”, Sigma Chemical, St. Louis, Mo.) or trypsin. MMP-9 also was activated using human recombinant MMP-3 (purified in Assignee's laboratory following standard cloning and purification techniques).
(§4) The following fluorogenic, methoxycoumarin-containing polypeptide substrate (A) was used in the MMP inhibition assays:
(§5) MCA-ArgProLeuGlyLeuDpaAlaArgGluArgNH2 (A)
(§6) “MCA” is 7-methoxycoumarin-4-yl acetyl. Substrate (A) was prepared Assignee's laboratory. In the absence of MMP inhibitory activity, the substrate is cleaved at the Gly-Leu peptide bond. This cleavage separates the highly fluorogenic peptide from the 2,4-dinitrophenyl quencher, thus resulting in increase of fluorescent intensity.
(§7) The stock solutions of the assayed compounds and salts were prepared in 1% dimethyl sulfoxide (DMSO). These stock solutions were diluted in Buffer A (100 mM Tris-HCl, 100 mM NaCl, 10 mM CaCl2, 0.05% polyoxyethylene 23 lauryl ether, pH 7.5) to obtain solutions with different compound concentrations, i.e., assay solutions with different concentrations of the assayed MMP inhibitory compound. The experiment controls contained the same amount of Buffer A/DMSO as the assayed sample, but contained none of the tested compound or salt.
(§8) The assays from which the Ki determinations were made were performed as follows. The assayed compound samples were incubated in separate wells of untreated white polystyrene plates (Nunc Nalgene International, Rochester, N.Y.), and analyzed on a Tecan SpectraFlour Plus plate reader. The excitation wavelength was 330 nm, and the emission wavelength -420 nm. All samples (assayed compounds and controls) were incubated in separate plate wells at room temperature for 1 hr in the presence of 4 μM of MMP substrate (A). In the absence of MMP inhibitory activity, substrate (A) was cleaved at the Gly-Leu bond resulting in an increase of relative fluorescence. Inhibition was observed as a reduced rate of this increase in relative fluorescence. […] This protocol is a modification of method by Knight et al., FEBS Lett., 296(3), 263-266 (1992). Apparent inhibitory constants were determined by non-linear regression of reaction velocity as a function of inhibitor and enzyme concentration using Morrison's equation, as described by Kuzmic, P., et al., Anal. Biochem., 286(1):45-50 (2000). Modifications were made in the non-linear regression method to allow a common control reaction rate and effective enzyme concentration to be shared between all dose-response relationships on a given assay plate. Since the substrate concentration was chosen to be at or below the Km, the apparent Ki's from this analysis were reported as Ki's without correction for the influence of substrate.
(§9) The above protocols were used to determine MMP inhibition Ki constants for the compounds in Examples 1, 2, and 4-42 above. All Ki values in Table 3 are given in nM units.

The next data set concerns the target T2, Human recombinant MMP-1 (Homo sapiens, UniProt P03956).
T2 construct: made in house; host or cells: MMP-1-transfected HT-1080 cells (spent media)
T2 sequence (P03956 100-469): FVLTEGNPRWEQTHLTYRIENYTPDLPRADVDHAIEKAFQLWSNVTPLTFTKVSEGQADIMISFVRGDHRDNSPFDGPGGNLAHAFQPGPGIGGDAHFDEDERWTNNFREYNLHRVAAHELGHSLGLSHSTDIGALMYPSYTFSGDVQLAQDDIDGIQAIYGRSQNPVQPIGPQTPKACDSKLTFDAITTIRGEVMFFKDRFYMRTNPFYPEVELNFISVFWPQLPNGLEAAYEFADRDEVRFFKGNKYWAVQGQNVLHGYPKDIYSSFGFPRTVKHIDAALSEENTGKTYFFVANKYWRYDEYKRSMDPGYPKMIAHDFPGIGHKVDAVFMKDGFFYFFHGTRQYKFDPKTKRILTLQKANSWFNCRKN
The data set is described as follows: In vitro MMP inhibition analysis (fluorogenic peptide substrate), MMP-1. Conditions: human recombinant enzyme; 4 μM substrate (A); apparent Ki without substrate correction. The format is biochemical. The method, then: as §1, §2
The MMP-1 proenzyme was purified from the spent media of MMP-1-transfected HT-1080 cells provided by Dr. Harold Welgus of Washington University (St. Louis, Mo.). The protein was purified on a zinc chelating column.
as §3, §4, §5, §6, §7, §8, §9

The next data set deals with T3, Human recombinant MMP-14 (Homo sapiens, UniProt P50281).
T3 construct: The catalytic domain enzyme was expressed in E. Coli inclusion bodies; made in house
The data set is described as follows: In vitro MMP inhibition analysis (fluorogenic peptide substrate), MMP-14. Format: biochemical. Conditions: human recombinant catalytic domain; 4 μM substrate (A); apparent Ki without substrate correction. The protocol:
as §1, §2
The MMP-14 full length cDNA was provided by Dr. Gregory Goldberg of Washington University (St. Louis, Mo.). The catalytic domain enzyme was expressed in E. Coli inclusion bodies, solubilized in urea, purified on a preparative […] reverse phase HPLC column, and then refolded in the presence of zinc acetate and purified for use.
as §3, §4, §5, §6, §7, §8, §9

A further data set deals with T4, Human recombinant MMP-2 (Homo sapiens, UniProt P08253).
T4 construct: made in house; host or cells: MMP-2-transfected p2AHT2 cells
T4 sequence (P08253 110-660): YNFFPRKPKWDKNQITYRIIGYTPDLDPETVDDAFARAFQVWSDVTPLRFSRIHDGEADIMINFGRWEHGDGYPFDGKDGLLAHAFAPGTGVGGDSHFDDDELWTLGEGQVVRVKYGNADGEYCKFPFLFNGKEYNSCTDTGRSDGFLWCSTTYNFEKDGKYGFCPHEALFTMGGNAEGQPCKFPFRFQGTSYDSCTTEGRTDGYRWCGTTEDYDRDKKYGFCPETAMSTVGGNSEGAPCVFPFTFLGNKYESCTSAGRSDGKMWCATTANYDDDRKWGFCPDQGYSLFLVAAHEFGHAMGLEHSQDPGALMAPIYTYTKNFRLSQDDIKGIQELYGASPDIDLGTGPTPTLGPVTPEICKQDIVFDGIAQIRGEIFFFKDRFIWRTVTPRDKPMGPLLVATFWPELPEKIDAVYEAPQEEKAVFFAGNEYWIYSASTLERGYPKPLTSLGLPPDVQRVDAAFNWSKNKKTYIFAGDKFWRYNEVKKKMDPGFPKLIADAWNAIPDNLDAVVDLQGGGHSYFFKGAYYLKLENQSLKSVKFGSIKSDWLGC
In words: In vitro MMP inhibition analysis (fluorogenic peptide substrate), MMP-2. The format is biochemical. Conditions: human recombinant enzyme; 4 μM substrate (A); apparent Ki without substrate correction. The protocol:
as §1, §2
The MMP-2 proenzyme was purified by gelatin Sepharose chromatography from MMP-2- transfected p2AHT2 cells provided by Dr. Gregory Goldberg of Washington University (St. Louis, Mo.).
as §3, §4, §5, §6, §7, §8, §9

Data set [1] deals with advanced, rapidly progressive, treatment-refractory solid tumor cancers (colorectal, pancreatic, ovarian, and prostate). Conditions: cited from earlier work.

The structures appear in SMILES notation.

T1 sequence (P14780 107-707 limits assumed): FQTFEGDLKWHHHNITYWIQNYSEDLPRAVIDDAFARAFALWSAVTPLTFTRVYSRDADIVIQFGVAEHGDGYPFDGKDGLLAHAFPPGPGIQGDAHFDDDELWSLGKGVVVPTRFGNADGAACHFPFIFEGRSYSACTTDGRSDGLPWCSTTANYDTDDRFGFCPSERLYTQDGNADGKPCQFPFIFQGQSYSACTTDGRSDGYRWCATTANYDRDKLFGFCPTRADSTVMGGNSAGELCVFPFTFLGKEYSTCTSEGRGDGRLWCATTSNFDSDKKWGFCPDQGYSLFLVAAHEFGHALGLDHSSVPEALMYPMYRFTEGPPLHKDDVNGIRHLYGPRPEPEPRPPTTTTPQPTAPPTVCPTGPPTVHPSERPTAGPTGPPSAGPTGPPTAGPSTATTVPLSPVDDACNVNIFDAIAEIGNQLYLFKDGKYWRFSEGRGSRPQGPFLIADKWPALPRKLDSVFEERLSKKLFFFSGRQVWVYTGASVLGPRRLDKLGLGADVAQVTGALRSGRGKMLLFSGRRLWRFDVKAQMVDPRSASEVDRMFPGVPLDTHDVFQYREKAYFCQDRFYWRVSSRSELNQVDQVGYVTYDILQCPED

In the case of `O=C(c1ccc(-c2ccc(S(=O)(=O)C3(C(=O)NO)CCOCC3)cn2)cc1)N1CCCCC1` [Example 77], the Ki at Human recombinant MMP-9 was above 10 µM; on Human recombinant MMP-1, above 10 µM; at Human recombinant MMP-14, above 10 µM; at Human recombinant MMP-2, 4.97 µM.
Take `O=C(c1ccc(-c2ccc(S(=O)(=O)C3(C(=O)NO)CCOCC3)cn2)cc1)N1CCOCC1` [Example 80]: the Ki at Human recombinant MMP-9 was above 10 µM; at Human recombinant MMP-1 it was above 10 µM; at Human recombinant MMP-14, above 10 µM; on Human recombinant MMP-2 it was 1.76 µM.
For `CNC(=O)[C@@H](NC(=O)[C@H](CC(C)C)[C@H](O)C(=O)NO)C(C)(C)C` [Marimastat], the “effect on cancer-specific antigens used as surrogate markers for biological activity” value in data set [1] (Phase I/II studies, patients with advanced solid tumor cancers) is reported as “dose-related reduction in the rise of cancer-specific antigens”. Also, in data set [1] (clinical trials, patients), the “most common drug-related toxicity” value is “musculoskeletal pain and stiffness”.
